# Test results taken from article PMC5612656, “In vitro and in vivo effects of 2,4 diaminoquinazoline inhibitors of the decapping scavenger enzyme DcpS: Context-specific modulation of SMN transcript levels” (PLoS ONE, 2017).
# Tested on: spinal cord transcriptome
# Assay: RNA-Seq of spinal cord tissue from 2B/- and 2B/+ mice
# Type: in vivo, mouse
# Conditions: 2B-Veh vs 2B-RG3039
compound,measurement,value
Nc1nc(N)c2c(OCC3CCN(Cc4c(Cl)cccc4Cl)CC3)cccc2n1 [RG3039],log2(fold-change) Gm10309,-1.704
same,log2(fold-change) Gm11681,-1.051
same,log2(fold-change) Gm13066,-1.415
same,log2(fold-change) Gm16316,-0.9137
same,log2(fold-change) Gm16958,-0.6452
same,log2(fold-change) Gm21984,-0.8301
same,log2(fold-change) Gm26645,0.5748
same,log2(fold-change) Gp2,1.536
same,log2(fold-change) Gpr50,0.6598
same,log2(fold-change) Gpx3,-0.9006
same,log2(fold-change) Gsg2,1
same,log2(fold-change) Gstm1,-0.9261
same,log2(fold-change) Gsx1,1.082
same,log2(fold-change) Hbegf,0.4821
same,log2(fold-change) Heph,-0.6747
same,log2(fold-change) Hes5,1.011
same,log2(fold-change) Heyl,0.7294
same,log2(fold-change) Hif3a,-1.3266
same,log2(fold-change) Hist1h1c,-0.9093
same,log2(fold-change) Hist1h4h,-0.4829
same,log2(fold-change) Hpgd,1.149
same,log2(fold-change) Hr,-1.031
same,log2(fold-change) Hsf3,-1.087
same,log2(fold-change) Iapp,-0.9349
same,log2(fold-change) Id3,0.7631
same,log2(fold-change) Ier5,0.6487
same,log2(fold-change) Igf1,0.4613
same,log2(fold-change) Igsf1,0.614
same,log2(fold-change) Il12rb1,-1.3
same,log2(fold-change) Itga6,0.6885
same,log2(fold-change) Itgb3,0.5631
same,log2(fold-change) Kcna5,-1.0224
same,log2(fold-change) Kcne4,0.8611
same,log2(fold-change) Kdelr3,0.5886
same,log2(fold-change) Kdm4dl,-1.255
same,log2(fold-change) Kif2c,0.8365
same,log2(fold-change) Klf15,-1.065
same,log2(fold-change) Klhl30,0.8074
same,log2(fold-change) LRRC8A,-0.627
same,log2(fold-change) Loxl1,0.7115
same,log2(fold-change) Lrrc8a,-0.9652
same,log2(fold-change) Map3k6,-2.942
same,log2(fold-change) Matn1,-1.5615
same,log2(fold-change) Mcm6,0.8445
same,log2(fold-change) Mertk,-0.6404
same,log2(fold-change) Mex3a,0.9304
same,log2(fold-change) Mgmt,-0.5604
same,log2(fold-change) Mki67,0.4816
same,log2(fold-change) Mmp14,0.9436
same,log2(fold-change) Mrgprd,1.807
same,log2(fold-change) Mrpl41,-1.248
same,log2(fold-change) Mycn,0.9874
same,log2(fold-change) Ncan,0.7942
same,log2(fold-change) Ncapg,0.8309
same,log2(fold-change) Neil3,0.7885
same,log2(fold-change) Nes,0.5009
same,log2(fold-change) Notum,0.8827
same,log2(fold-change) Nusap1,0.4877
same,log2(fold-change) Otoa,-1.049
same,log2(fold-change) Pappa,0.5579
same,log2(fold-change) Pbk,0.5785
same,log2(fold-change) Pdk4,-1.799
same,log2(fold-change) Per1,-0.8684
same,log2(fold-change) Phactr3,-0.7376
same,log2(fold-change) Phyhd1,-0.7387
same,log2(fold-change) Pilrb2,-1.585
same,log2(fold-change) Pirt,0.7729
same,log2(fold-change) Pmaip1,-0.9334
same,log2(fold-change) Pmp2,1.429
same,log2(fold-change) Pnpla2,-1.095
same,log2(fold-change) Pnpla7,-0.626
same,log2(fold-change) Polr3e,-1.443
same,log2(fold-change) Ppp1r1b,-1.252
same,log2(fold-change) Prc1,0.5813
same,log2(fold-change) Prodh,-0.8352
same,log2(fold-change) Pxmp2,-0.9238
same,log2(fold-change) Pycr1,1.135
same,log2(fold-change) Rab11fip1,-0.4528
same,log2(fold-change) Rasl2-9,-0.693
same,log2(fold-change) Reg3b,1.9386
same,log2(fold-change) Rnase1,-0.7662
same,log2(fold-change) Rorc,-0.6702
same,log2(fold-change) Rsad2,0.8406
same,log2(fold-change) Scn10a,1.7
same,log2(fold-change) Scrg1,-0.8008
same,log2(fold-change) Sdpr,-0.7672
same,log2(fold-change) Sds,-2.356
same,log2(fold-change) Serpinb5,-1.293
same,log2(fold-change) Serpinh1,0.3762
same,log2(fold-change) Sgk1,-1.812
same,log2(fold-change) Shroom1,-0.6614
same,log2(fold-change) Slc13a3,0.4446
same,log2(fold-change) Slc13a5,0.8562
